{"source": "ChEMBL document CHEMBL4602617", "about": "“Discovery and optimization of heteroaryl piperazines as potent and selective PI3Kδ inhibitors” (Bioorg Med Chem Lett, 2020)", "key": {"[1]": {"molecular_target": "Voltage-dependent L-type calcium channel subunit alpha-1C (Homo sapiens, UniProt Q13936)", "sequence (Q13936 whole entry)": "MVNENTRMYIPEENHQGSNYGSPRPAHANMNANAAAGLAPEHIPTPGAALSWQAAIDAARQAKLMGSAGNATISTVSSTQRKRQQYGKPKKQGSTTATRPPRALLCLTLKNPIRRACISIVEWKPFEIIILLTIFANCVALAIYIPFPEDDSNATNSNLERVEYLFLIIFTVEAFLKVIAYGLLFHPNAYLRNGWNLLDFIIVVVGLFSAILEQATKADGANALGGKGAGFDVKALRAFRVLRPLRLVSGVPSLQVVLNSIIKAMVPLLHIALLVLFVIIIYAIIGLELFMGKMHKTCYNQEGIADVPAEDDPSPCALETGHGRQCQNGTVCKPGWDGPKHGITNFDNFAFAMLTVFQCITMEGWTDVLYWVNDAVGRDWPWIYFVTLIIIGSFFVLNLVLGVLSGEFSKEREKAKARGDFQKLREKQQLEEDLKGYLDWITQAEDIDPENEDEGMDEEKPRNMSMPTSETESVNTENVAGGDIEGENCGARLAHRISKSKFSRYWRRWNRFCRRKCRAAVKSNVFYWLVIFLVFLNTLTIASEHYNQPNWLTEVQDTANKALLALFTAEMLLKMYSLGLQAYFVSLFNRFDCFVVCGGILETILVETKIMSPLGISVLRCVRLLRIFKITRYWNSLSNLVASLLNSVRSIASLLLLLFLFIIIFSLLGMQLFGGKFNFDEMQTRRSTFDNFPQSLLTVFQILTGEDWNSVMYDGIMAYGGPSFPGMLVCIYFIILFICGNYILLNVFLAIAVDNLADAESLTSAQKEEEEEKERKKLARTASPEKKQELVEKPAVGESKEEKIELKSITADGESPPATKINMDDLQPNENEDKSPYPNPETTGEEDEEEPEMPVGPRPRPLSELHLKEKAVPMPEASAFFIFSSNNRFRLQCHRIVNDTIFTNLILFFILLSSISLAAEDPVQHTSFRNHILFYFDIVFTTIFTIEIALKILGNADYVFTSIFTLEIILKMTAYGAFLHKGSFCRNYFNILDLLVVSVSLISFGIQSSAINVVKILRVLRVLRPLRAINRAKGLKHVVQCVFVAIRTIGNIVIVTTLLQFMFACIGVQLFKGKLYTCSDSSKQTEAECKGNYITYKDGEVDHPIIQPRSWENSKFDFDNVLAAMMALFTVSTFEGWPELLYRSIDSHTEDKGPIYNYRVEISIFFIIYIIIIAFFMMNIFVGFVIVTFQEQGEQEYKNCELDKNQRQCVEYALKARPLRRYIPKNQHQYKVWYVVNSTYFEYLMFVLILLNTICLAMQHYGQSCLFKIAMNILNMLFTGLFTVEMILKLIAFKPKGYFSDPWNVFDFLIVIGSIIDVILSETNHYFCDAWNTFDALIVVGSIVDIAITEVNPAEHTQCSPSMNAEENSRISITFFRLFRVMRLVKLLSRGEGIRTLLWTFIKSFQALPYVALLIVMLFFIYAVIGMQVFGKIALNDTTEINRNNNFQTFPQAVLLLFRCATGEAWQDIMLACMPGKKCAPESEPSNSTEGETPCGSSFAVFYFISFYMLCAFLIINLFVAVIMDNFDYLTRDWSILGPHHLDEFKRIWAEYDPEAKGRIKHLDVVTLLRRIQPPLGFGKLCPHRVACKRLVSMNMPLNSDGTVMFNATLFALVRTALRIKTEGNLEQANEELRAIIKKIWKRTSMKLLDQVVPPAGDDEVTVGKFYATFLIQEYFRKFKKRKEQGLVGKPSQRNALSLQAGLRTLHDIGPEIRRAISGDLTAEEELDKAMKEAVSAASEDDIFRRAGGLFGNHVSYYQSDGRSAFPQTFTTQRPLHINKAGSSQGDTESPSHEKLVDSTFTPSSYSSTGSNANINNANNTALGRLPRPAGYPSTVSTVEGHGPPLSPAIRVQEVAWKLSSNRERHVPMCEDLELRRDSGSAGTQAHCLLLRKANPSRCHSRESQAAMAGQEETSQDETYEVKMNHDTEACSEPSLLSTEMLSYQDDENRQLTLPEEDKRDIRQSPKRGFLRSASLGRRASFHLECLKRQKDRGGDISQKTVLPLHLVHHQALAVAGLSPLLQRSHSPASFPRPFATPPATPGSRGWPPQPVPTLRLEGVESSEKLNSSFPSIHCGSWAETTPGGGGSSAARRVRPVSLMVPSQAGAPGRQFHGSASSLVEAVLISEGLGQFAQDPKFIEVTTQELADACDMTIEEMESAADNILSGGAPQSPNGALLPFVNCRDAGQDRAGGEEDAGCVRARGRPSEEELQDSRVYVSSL", "test": "Inhibition of Cav1.2 (unknown origin)"}, "[2]": {"molecular_target": "Tyrosine-protein kinase CSK (Homo sapiens, UniProt P41240)", "test": "Inhibition of recombinant full length human His-tagged CSK expressed in Escherichia coli expression system using tyrosine-2 peptide as substrate incubated for 60 mins in presence of ATP by Z'-LYTE assay"}, "[3]": {"molecular_target": "Phosphodiesterase 3 (Homo sapiens) (UniProt Q14432+Q13370)", "test": "Inhibition of human platelet PDE3 at 10 uM using cAMP as substrate after 20 mins in presence of [3H]cAMP by radiometric scintillation assay relative to control"}, "[4]": {"molecular_target": "Calcium/calmodulin-dependent protein kinase type II subunit alpha (Homo sapiens, UniProt Q9UQM7)", "test": "Inhibition of recombinant full length human His-tagged CAMK2alpha expressed in baculovirus expression system using serine/threonine-4 peptide as substrate incubated for 60 mins in presence of ATP by Z'-LYTE assay"}, "[5]": {"molecular_target": "Macrophage-stimulating protein receptor (Homo sapiens, UniProt Q04912)", "test": "Inhibition of recombinant human GST-tagged RON catalytic domain (983 to 1400 residues) expressed in baculovirus expression system using tyrosine-6 peptide as substrate incubated for 60 mins in presence of ATP by Z'-LYTE assay"}, "[6]": {"molecular_target": "Tyrosine-protein kinase ABL1 (Homo sapiens, UniProt P00519, E255K)", "test": "Inhibition of recombinant full length human His-tagged ABL1 E255K mutant cytoplasmic domain expressed in baculovirus expression system using tyrosine-2 peptide as substrate incubated for 60 mins in presence of ATP by Z'-LYTE assay"}, "[7]": {"molecular_target": "Alpha-2C adrenergic receptor (Homo sapiens) (UniProt P18825)", "test": "Displacement of [3H]rauwolscine from full-length recombinant human alpha2C receptor expressed in CHOK1 cells at 10 uM measured after 60 mins by scintillation counting method relative to control", "format": "cell-based", "conditions": "CHO-K1"}, "[8]": {"molecular_target": "Serine/threonine-protein kinase pim-2 (Homo sapiens, UniProt Q9P1W9)", "test": "Inhibition of recombinant full length GST-tagged human PIM2 expressed in baculovirus expression system using Ser/Thr 07 as substrate after 1 hr in presence of ATP by Z'-LYTE assay"}, "[9]": {"molecular_target": "Receptor tyrosine-protein kinase erbB-4 (Homo sapiens, UniProt Q15303)", "test": "Inhibition of recombinant human N-terminal GST-tagged ERBB4 catalytic domain (708 to 993 residues) expressed in baculovirus expression system using tyrosine-1 peptide as substrate incubated for 60 mins in presence of ATP by Z'-LYTE assay"}, "[10]": {"molecular_target": "Glutamate NMDA receptor (Rattus norvegicus) (UniProt P35439+Q00959+Q00960+Q00961+Q62645+Q8VHN2+Q9R1M7)", "test": "Displacement of [3H]Ifenprodil from in glutamate NMDA receptor polyamine binding site in Wistar rat cerebral cortex at 10 uM incubated for 120 mins by radiometric scintillation analysis relative to control"}, "[11]": {"molecular_target": "Mitogen-activated protein kinase 12 (Homo sapiens, UniProt P53778)", "test": "Inhibition of recombinant full length human His-tagged p38gamma expressed in baculovirus expression system using serine/threonine-3 peptide as substrate incubated for 60 mins in presence of ATP by Z'-LYTE assay"}, "[12]": {"molecular_target": "T1, Tyrosine-protein kinase JAK2 (Homo sapiens, UniProt O60674)", "T1 sequence (O60674 whole entry, the tested form may be a part)": "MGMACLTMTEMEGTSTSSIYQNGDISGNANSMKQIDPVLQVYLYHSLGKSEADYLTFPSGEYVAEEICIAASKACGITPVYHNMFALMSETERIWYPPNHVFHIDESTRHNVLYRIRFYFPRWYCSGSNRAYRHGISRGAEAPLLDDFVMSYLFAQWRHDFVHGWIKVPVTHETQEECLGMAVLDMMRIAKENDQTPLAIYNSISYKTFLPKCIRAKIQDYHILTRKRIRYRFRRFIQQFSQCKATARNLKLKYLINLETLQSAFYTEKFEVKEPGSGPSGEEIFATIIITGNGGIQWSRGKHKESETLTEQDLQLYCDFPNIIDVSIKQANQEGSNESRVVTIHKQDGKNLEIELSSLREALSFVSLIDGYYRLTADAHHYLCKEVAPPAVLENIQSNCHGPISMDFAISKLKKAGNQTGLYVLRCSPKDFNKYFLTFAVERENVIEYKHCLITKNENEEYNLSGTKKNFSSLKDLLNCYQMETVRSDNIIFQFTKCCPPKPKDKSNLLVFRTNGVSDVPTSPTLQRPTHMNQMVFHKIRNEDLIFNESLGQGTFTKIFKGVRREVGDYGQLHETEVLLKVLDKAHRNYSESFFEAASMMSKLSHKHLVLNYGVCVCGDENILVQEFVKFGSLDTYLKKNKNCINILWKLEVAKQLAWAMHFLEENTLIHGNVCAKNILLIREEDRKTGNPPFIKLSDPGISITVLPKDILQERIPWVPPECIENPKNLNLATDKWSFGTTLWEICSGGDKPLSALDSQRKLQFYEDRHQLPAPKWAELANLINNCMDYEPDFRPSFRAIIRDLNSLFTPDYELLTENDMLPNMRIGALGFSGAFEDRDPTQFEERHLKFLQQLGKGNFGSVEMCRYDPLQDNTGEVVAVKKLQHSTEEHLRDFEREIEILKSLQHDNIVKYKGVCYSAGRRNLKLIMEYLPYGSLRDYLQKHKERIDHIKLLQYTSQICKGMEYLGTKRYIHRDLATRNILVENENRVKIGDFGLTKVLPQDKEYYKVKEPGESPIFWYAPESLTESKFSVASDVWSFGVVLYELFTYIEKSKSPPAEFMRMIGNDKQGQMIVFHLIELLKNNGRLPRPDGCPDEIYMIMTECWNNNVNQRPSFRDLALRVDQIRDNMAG", "test": "Inhibition of recombinant GST-tagged human JAK2-JH1/JH2 domain (574 to 1154 residues) expressed in baculovirus expression system using Tyr 06 as substrate after 1 hr in presence of ATP by Z'LYTE assay"}, "[13]": {"molecular_target": "Dual specificity protein kinase CLK1 (Homo sapiens, UniProt P49759)", "sequence (P49759 whole entry, the tested form may be a part)": "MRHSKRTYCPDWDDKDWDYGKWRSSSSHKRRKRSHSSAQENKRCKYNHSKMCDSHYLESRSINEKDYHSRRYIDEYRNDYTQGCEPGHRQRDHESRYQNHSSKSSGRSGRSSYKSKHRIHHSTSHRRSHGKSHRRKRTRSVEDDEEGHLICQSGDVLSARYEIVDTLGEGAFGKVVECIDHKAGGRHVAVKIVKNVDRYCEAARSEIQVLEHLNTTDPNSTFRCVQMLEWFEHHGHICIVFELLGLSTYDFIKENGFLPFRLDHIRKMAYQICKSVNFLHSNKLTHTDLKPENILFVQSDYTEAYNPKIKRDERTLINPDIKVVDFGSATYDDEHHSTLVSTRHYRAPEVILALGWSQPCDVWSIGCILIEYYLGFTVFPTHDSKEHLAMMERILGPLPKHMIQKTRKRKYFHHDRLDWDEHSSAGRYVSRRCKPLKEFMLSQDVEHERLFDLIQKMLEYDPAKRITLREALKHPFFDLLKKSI", "test": "Inhibition of recombinant human GST-tagged CLK1 catalytic domain (129 to 484 residues) expressed in Escherichia coli expression system using serine/threonine-9 peptide as substrate incubated for 60 mins in presence of ATP by Z'-LYTE assay"}, "Ephrin type-A receptor 1": {"molecular_target": "Ephrin type-A receptor 1 (Homo sapiens, UniProt P21709)", "test": "Inhibition of recombinant human GST-tagged EPHA1 cytoplasmic domain (568 to 976 residues) expressed in baculovirus expression system using Tyr 02 as substrate after 1 hr in presence of ATP by Z'LYTE assay"}, "[14]": {"molecular_target": "Histamine H4 receptor (Homo sapiens) (UniProt Q9H3N8)", "sequence (Q9H3N8 whole entry)": "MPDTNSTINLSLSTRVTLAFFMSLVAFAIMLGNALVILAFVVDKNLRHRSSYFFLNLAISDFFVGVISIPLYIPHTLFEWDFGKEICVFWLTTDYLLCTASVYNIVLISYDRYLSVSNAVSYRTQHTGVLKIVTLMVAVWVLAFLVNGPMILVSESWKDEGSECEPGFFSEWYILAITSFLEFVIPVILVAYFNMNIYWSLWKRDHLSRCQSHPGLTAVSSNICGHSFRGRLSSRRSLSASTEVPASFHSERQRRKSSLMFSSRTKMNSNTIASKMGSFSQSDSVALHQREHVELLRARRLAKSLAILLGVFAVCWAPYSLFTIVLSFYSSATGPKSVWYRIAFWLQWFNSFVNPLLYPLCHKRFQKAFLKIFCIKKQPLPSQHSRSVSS", "test": "Inhibition of human histamine H4 receptor at 10 uM relative to control"}, "SRSF protein kinase 3": {"molecular_target": "SRSF protein kinase 3 (Homo sapiens, UniProt Q9UPE1)", "test": "Inhibition of recombinant full length human GST-tagged MSSK1 expressed in baculovirus expression system using serine/threonine-18 peptide as substrate incubated for 60 mins in presence of ATP by Z'-LYTE assay"}, "[15]": {"molecular_target": "Melanocortin receptor 3 (Homo sapiens) (UniProt P41968)", "sequence (P41968 whole entry)": "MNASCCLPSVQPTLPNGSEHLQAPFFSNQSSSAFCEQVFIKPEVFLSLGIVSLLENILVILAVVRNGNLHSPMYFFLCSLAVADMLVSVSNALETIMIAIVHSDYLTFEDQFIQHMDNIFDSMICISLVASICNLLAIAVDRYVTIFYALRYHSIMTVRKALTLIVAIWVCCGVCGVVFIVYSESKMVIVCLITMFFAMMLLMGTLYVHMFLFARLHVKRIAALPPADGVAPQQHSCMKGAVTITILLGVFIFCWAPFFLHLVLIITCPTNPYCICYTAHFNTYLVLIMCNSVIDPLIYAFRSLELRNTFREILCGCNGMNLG", "test": "Displacement of [125I]NDP-alpha-MSH from full length human recombinant MC3 receptor expressed in HEK293 cells at 10 uM measured after 60 mins by radiometric scintillation analysis relative to control", "format": "cell-based"}, "AMPK alpha2/beta1/gamma1": {"molecular_target": "AMPK alpha2/beta1/gamma1 (Homo sapiens, UniProt P54619+P54646+Q9Y478)", "test": "Inhibition of recombinant full length GST/His-tagged human AMPK alpha2/beta1/gamma1 expressed in baculovirus expression system using Ser/Thr-23 peptide as substrate incubated for 60 mins in presence of ATP by Z'-LYTE assay"}, "Ephrin type-A receptor 3": {"molecular_target": "Ephrin type-A receptor 3 (Homo sapiens, UniProt P29320)", "test": "Inhibition of tracer 236 binding to recombinant human His-tagged EPHA3 (569 to 976 residues) expressed in baculovirus expression system measured after 60 mins in presence of ATP by Lanthascreen assay"}, "Activin receptor type-1B": {"molecular_target": "Activin receptor type-1B (Homo sapiens, UniProt P36896)", "sequence (P36896 whole entry, the tested form may be a part)": "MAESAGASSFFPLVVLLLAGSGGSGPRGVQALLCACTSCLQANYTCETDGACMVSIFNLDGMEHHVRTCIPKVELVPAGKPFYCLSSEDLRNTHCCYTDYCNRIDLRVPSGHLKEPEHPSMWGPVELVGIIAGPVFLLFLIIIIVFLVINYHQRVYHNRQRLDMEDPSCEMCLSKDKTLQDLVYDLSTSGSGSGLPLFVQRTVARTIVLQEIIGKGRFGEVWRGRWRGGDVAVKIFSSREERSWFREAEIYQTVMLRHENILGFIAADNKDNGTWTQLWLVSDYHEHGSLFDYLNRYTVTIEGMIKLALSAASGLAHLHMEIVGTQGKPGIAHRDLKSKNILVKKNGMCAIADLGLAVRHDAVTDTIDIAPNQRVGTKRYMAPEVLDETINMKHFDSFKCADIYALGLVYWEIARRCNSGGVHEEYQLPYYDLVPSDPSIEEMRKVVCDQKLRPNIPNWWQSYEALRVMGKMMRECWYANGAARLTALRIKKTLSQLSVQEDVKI", "test": "Inhibition of recombinant GST-tagged human ALK4 (150 to 505 residues) expressed in baculovirus expression system using Ser/Thr-16 peptide as substrate incubated for 60 mins in presence of ATP by Z'-LYTE assay"}, "[16]": {"molecular_target": "Serine/threonine-protein kinase Nek7 (Homo sapiens, UniProt Q8TDX7)", "test": "Inhibition of NEK7 (unknown origin) by Z'LYTE assay"}, "[17]": {"molecular_target": "Endothelin receptor type B (Homo sapiens) (UniProt P24530)", "test": "Displacement of [125I]endothelin-1 from recombinant full length human recombinant ETB receptor expressed in CHO-K1 cells at 10 uM measured after 120 mins by radiometric scintillation analysis relative to control", "format": "cell-based"}, "[18]": {"molecular_target": "Dual specificity mitogen-activated protein kinase kinase 1 (Homo sapiens, UniProt Q02750)", "test": "Inhibition of recombinant full length human His-tagged MEK1 expressed in baculovirus expression system using serine/threonine-3 peptide as substrate incubated for 60 mins in presence of ATP by Z'-LYTE assay"}, "[19]": {"molecular_target": "T1, Tyrosine-protein kinase JAK2", "test": "Inhibition of human recombinant GST tagged JAK2 catalytic domain expressed in baculovirus expression system using Tyr6 peptide as substrate measured after 1 hr in presence of ATP by Z'-LYTE assay"}, "[20]": {"molecular_target": "Gastrin/cholecystokinin type B receptor (Homo sapiens) (UniProt P32239)", "test": "Displacement of [125I]CCK-8 from recombinant full length human recombinant CCK2 expressed in Chem-1 cells at 10 uM measured after 3 hrs by radiometric scintillation analysis relative to control", "format": "cell-based"}}}
{"smiles": "C[C@@H]1C[C@H]1C(=O)N1CCN(c2cnc(C#N)c(-c3cnn(C)c3)n2)C[C@H]1C", "values": [{"measurement": "IC50", "setting": "[1]", "value": "> 30", "unit": "µM"}, {"measurement": "IC50", "setting": "[2]", "value": "> 100", "unit": "µM"}, {"measurement": "inhibition", "setting": "[3]", "value": 21, "unit": "%"}, {"measurement": "IC50", "setting": "[4]", "value": "> 100", "unit": "µM"}, {"measurement": "IC50", "setting": "[5]", "value": "> 100", "unit": "µM"}, {"measurement": "IC50", "setting": "[6]", "value": "> 100", "unit": "µM"}, {"measurement": "inhibition", "setting": "[7]", "value": 5, "unit": "%"}, {"measurement": "IC50", "setting": "[8]", "value": "> 100", "unit": "µM"}, {"measurement": "IC50", "setting": "[9]", "value": "> 100", "unit": "µM"}, {"measurement": "inhibition", "setting": "[10]", "value": 0, "unit": "%"}, {"measurement": "IC50", "setting": "[11]", "value": "> 100", "unit": "µM"}, {"measurement": "IC50", "setting": "[12]", "value": "> 100", "unit": "µM"}, {"measurement": "IC50", "setting": "[13]", "value": "> 100", "unit": "µM"}, {"measurement": "IC50", "setting": "Ephrin type-A receptor 1", "value": 34, "unit": "µM"}, {"measurement": "inhibition", "setting": "[14]", "value": 1, "unit": "%"}, {"measurement": "IC50", "setting": "SRSF protein kinase 3", "value": "> 100", "unit": "µM"}, {"measurement": "inhibition", "setting": "[15]", "value": 2, "unit": "%"}, {"measurement": "IC50", "setting": "AMPK alpha2/beta1/gamma1", "value": "> 100", "unit": "µM"}, {"measurement": "IC50", "setting": "Ephrin type-A receptor 3", "value": "> 100", "unit": "µM"}, {"measurement": "IC50", "setting": "Activin receptor type-1B", "value": "> 100", "unit": "µM"}, {"measurement": "IC50", "setting": "[16]", "value": "> 100", "unit": "µM"}, {"measurement": "inhibition", "setting": "[17]", "value": 2, "unit": "%"}, {"measurement": "IC50", "setting": "[18]", "value": "> 100", "unit": "µM"}, {"measurement": "IC50", "setting": "[19]", "value": "> 100", "unit": "µM"}, {"measurement": "inhibition", "setting": "[20]", "value": -4, "unit": "%"}]}
